{
  "source": "patent US20130236904A1",
  "about": "“METHOD FOR SCREENING FOR MATERIALS FOR PROMOTING THE DIFFERENTIATION OF SKIN CELLS” (AMOREPACIFIC CORPORATION, priority 2010, published 2013)",
  "system": "DUOX 1 gene",
  "test": "DUOX 1 gene expression by calcium concentration (Q-RT-PCR)",
  "format": "cell-based",
  "conditions": "normal human epidermal keratinocytes, 1.2 mM calcium (high calcium group) vs 120 μM (control), 24 hours; FIG. 1",
  "procedure": "Normal human epidermal keratinocytes (human epidermal neonatal keratinocyte cells) are purchased from Lonza, Inc. (Walkersville, Md., USA) and subcultured, and then incubated in a CO2 incubator under a condition of 37° C. and 5% CO2. Cell culture is prepared according to the instructions of Lonza, Inc. (Walkersville, Md., USA). KGM-2 bullet kit [bovine pituitary extract (BPE), 2 ml), human epidermal growth factor (hEGF, 0.5 ml), insulin (0.5 ml), hydrocortisone (0.5 ml), transferrin (0.5 ml), epinephrine (0.5 ml), gentamycin sulfate+amphofericin B (GA-1000, 0.5 ml)] are added to KBM-2 (Clonetics CC-3103) medium (500 ml).\n120 μM and 1.2 mM Calcium are added to the culture medium of human epidermal keratinocytes, respectively, and the cells are incubated for 24 hours. Each of them is used as a low calcium group (control group) and a high calcium group (test group). […] The isolated RNA is purified once more using an RNA kit (Qiagen RNeasy kit, Qiagen, Valencia, Calif.) and RNA quality is verified using Agilent 2100 BioAnalyzer (Agilent Technologies, Santa Clara, Calif., USA). cDNA is synthesized from the isolated RNA using a reverse transcription kit (Superscript Reverse Transcriptase (RT) II kit, Invitrogen, Carlsbad, Calif.), and expression of various NOX genes is quantitatively analyzed by means of real time-reverse transcription polymerase chain reaction (Q-RT-PCR). […]",
  "data": [
    {"molecule": "[Ca+2]", "note": "[calcium, Calcium]", "values": [
      {"measurement": "expression of DUOX 1 gene", "value": "more remarkably increased"}
    ]}
  ]
}
